Assay results published in patent US11584744B2 (UNIVERSITY OF WASHINGTON, priority 2017, dated 2023).
Like-named read-outs stand apart in the source and are kept apart here. Marks after values point to notes of the source that are not given here.

Tests used:
[1] = Protein binding to human plasma; assay type: in vitro ADME
T. cruzi = test: Acute T. cruzi infection model (bioluminescent T. cruzi); assay type: in vivo, Trypanosoma cruzi; settings: 50 mg/kg orally twice a day for five days
Protocol: FIG. 5 illustrates efficacy of a MetRS inhibitor in acute T. cruzi infection model. (A) Study protocol. Compounds were dosed orally with 50 mg/kg twice a day for five days, and the images were taken of day 6, 13, and 24. (B) Images and (C) graphs of the […] results.
(§1) Several compounds of the disclosure were also evaluated in vivo in C. parvum infection model and in acute T. cruzi infection model. Immunosuppressed mice (NOD SCID Gamma) with Cryptosporidium infection were treated for 5 days with test compounds. Cryptosporidium oocysts were quantified in stool by PCR. […] In FIG. 4, gamma-IFN knockout mice were used and, similarly, treated for 5 days with the test compound 2093. […] With respect to the T. cruzi, an efficacy model was employed in which the infection was monitored using bioluminescent T. cruz. With vehicle treatment, all mice died by day 14 post-infection.

Cryptosporidium = test: C. parvum infection model, NOD SCID Gamma mice, oocysts in stool by PCR; assay type: in vivo, Cryptosporidium parvum; settings: treated 5 days
Protocol: as §1

[2] = Data from Drugbank; cited from earlier work

Question: Which “% binding to human plasma” value [1] does the source give for `Fc1ccc2nc(NCCCN[C@@H]3CCNc4c(Cl)cc(Cl)cc43)[nH]c2n1` [Compound 1717, (4R)-6,8-dichloro—N-[3-({5-fluoro-3H-imidazo[4,5-b]pyridin-2-yl}amino)propyl]-1,2,3,4-tetrahydroquinolin-4-amine, reference compound] here?
Answer: The value was 95.4%.

Question: What does the source list for `CCn1c(Cc2ccc(OC)cc2Cl)cn(Cc2nc3nc(Cl)ccc3[nH]2)c1=O` [Compound 2093, 1-({5-chloro-1H-imidazo[4,5-b]pyridin-2-yl}methyl)-4-[(2-chloro-4-methoxyphenyl)methyl]-3-ethyl-2,3-dihydro-1H-imidazol-2-one]?
Answer: tissue parasites (T. cruzi): dramatic suppression of tissue parasites; survival (T. cruzi; vehicle mice all died by day 14): 100%; suppression of infection (Cryptosporidium): over 99%

Question: For `CC(=O)NC[C@H]1CN(c2ccc(N3CCOCC3)c(F)c2)C(=O)O1` [LNZ, linezolid], which “% binding to human plasma” value [2] is on record?
Answer: Its value is 31* %.
